Test systems include UACC-62 melanoma; NCI-H226 lung; IGROV1 ovarian; DU-145 prostate; TK-10 renal; MDA-MB-435; SF-295 CNS; UACC-257 melanoma; KM12 colon; SK-MEL-28 melanoma.
Holding throughout (assay): growth of human tumour cells (NCI), 48 h

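In this assay, cells in 96-well plates receive the compound at five concentrations for 48 hours. Endpoints are linearly interpolated between the surrounding concentrations. The concentration for 50% growth inhibition is given as GI50. TGI: total growth inhibition.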

As to `C[N+](C)(C)CC1CCCc2ccccc2C1=O` (stereo not drawn), the TGI in the experiment with UACC-62 melanoma is 26.5 µM; in the experiment on NCI-H226 lung, 42.2 µM; in the experiment on IGROV1 ovarian, 31.7 µM; with DU-145 prostate, over 56.3 µM; in the experiment with TK-10 renal, 36.8 µM; with MDA-MB-435, 11 µM. For the same compound, the TGI in the experiment with SF-295 CNS was over 55 µM; with UACC-257 melanoma, 32.4 µM; with KM12 colon it was 24.8 µM; in the experiment with SK-MEL-28 melanoma, 34.5 µM. For the same compound, the GI50 with KM12 colon is 5.1 µM.

Consider `O=C(O)COc1ccc2c(=O)c3sc4c(=O)c5ccccc5c(=O)c4c3c(=O)c2c1`, for which the GI50 was 12 µM in the experiment with UACC-62 melanoma; 15 µM in the experiment with NCI-H226 lung; 18.3 µM in the experiment with IGROV1 ovarian; 2.15 µM with DU-145 prostate; 23 µM with TK-10 renal; 1.78 µM with MDA-MB-435. Also, the GI50 in the experiment with SF-295 CNS is 6.72 µM; in the experiment on UACC-257 melanoma it was 16.2 µM; with KM12 colon, 24.3 µM; with SK-MEL-28 melanoma it was 8.19 µM. Further, the TGI is 39.4 µM in the experiment with UACC-62 melanoma; 41.1 µM in the experiment on NCI-H226 lung; 48.3 µM in the experiment with IGROV1 ovarian; 5.34 µM in the experiment on DU-145 prostate; 46.5 µM in the experiment with TK-10 renal; 3.35 µM in the experiment on MDA-MB-435. Also, the TGI is 20.6 µM with SF-295 CNS, 34.7 µM with UACC-257 melanoma, over 100 µM with KM12 colon and 28.6 µM with SK-MEL-28 melanoma.

With `Cc1cc(Cl)cc(OCCn2cc(F)cn2)c1-c1nc(N)nc2c1CN(C(=O)NCC(C)(F)F)C2`, the GI50 with UACC-62 melanoma is 0.0779 µM; in the experiment with NCI-H226 lung, 0.233 µM; in the experiment with IGROV1 ovarian, 0.138 µM; in the experiment with DU-145 prostate, 0.0652 µM; in the experiment with TK-10 renal it was 0.144 µM; with MDA-MB-435, 0.0578 µM. Also, the GI50 was 0.131 µM in the experiment with SF-295 CNS, 0.142 µM with UACC-257 melanoma, 0.0508 µM with KM12 colon and 0.0709 µM in the experiment with SK-MEL-28 melanoma. The TGI with UACC-62 melanoma, with NCI-H226 lung, in the experiment with IGROV1 ovarian, in the experiment on DU-145 prostate, in the experiment on TK-10 renal and with MDA-MB-435 was over 100 µM each time. The TGI is over 93.9 µM in the experiment on SF-295 CNS, over 100 µM in the experiment on UACC-257 melanoma, 0.459 µM with KM12 colon and over 100 µM with SK-MEL-28 melanoma.

For `Cn1cc(C2=C(c3ccc(N)cc3)C(=O)NC2=O)c2ccccc21`, the GI50 in the experiment with UACC-62 melanoma was 11.8 µM; with NCI-H226 lung it was 16.1 µM; in the experiment with IGROV1 ovarian, over 23.7 µM; with DU-145 prostate, over 25 µM; with TK-10 renal, over 25 µM; in the experiment on MDA-MB-435 it was 5.71 µM. The GI50 is 15.7 µM in the experiment with SF-295 CNS, over 25 µM in the experiment with UACC-257 melanoma, 10.9 µM in the experiment on KM12 colon and over 25 µM in the experiment on SK-MEL-28 melanoma. Moreover, the TGI in the experiment with UACC-62 melanoma is over 25 µM; in the experiment on NCI-H226 lung, over 25 µM; in the experiment on IGROV1 ovarian it was over 25 µM; in the experiment with DU-145 prostate, over 25 µM; in the experiment with TK-10 renal, over 25 µM; in the experiment on MDA-MB-435 it was 24.4 µM. In addition, the TGI in the experiment on SF-295 CNS, in the experiment on UACC-257 melanoma, in the experiment with KM12 colon and in the experiment on SK-MEL-28 melanoma was over 25 µM each time.

On to `COc1ccc(/C=C\[N+](=O)[O-])cc1OC`, for which the GI50 in the experiment with UACC-62 melanoma is 2.62 µM; in the experiment with NCI-H226 lung, 22.9 µM; with IGROV1 ovarian, 1.82 µM; in the experiment on DU-145 prostate, 3.1 µM; with TK-10 renal, 3.55 µM; with MDA-MB-435, 2.46 µM. The GI50 with SF-295 CNS is 12.2 µM; in the experiment with UACC-257 melanoma, 0.919 µM; in the experiment on KM12 colon, 2.73 µM; in the experiment with SK-MEL-28 melanoma, 3.53 µM. Besides, the TGI with UACC-62 melanoma turned out to be 12.3 µM; in the experiment on NCI-H226 lung it was 88.8 µM; in the experiment with IGROV1 ovarian, 4.46 µM; in the experiment with DU-145 prostate, 11.9 µM; in the experiment with TK-10 renal, 15.7 µM; in the experiment with MDA-MB-435, 9.38 µM. The TGI is 33.9 µM in the experiment on SF-295 CNS, 3.38 µM in the experiment with UACC-257 melanoma, 7.54 µM in the experiment with KM12 colon and 13 µM with SK-MEL-28 melanoma.

As to `N=C(N)C1CN(CCc2c[nH]c3ccccc23)C(=O)NC1=O` (stereo not drawn), the TGI in the experiment with UACC-62 melanoma, in the experiment with NCI-H226 lung, with IGROV1 ovarian, with DU-145 prostate, in the experiment with TK-10 renal and in the experiment with MDA-MB-435 was over 100 µM each time. Besides, the TGI in the experiment on SF-295 CNS, in the experiment on UACC-257 melanoma and in the experiment with SK-MEL-28 melanoma was over 100 µM each time.

In the case of `Cc1cc(Nc2ccc(NC(=O)c3ccc(Nc4ccnc5ccccc45)cc3)cc2)nc(N)n1`, the GI50 with UACC-62 melanoma is 2.33 µM; with NCI-H226 lung, 2.42 µM; in the experiment on IGROV1 ovarian, 15 µM; in the experiment on DU-145 prostate, 2.03 µM; in the experiment on TK-10 renal, 19.8 µM; in the experiment on MDA-MB-435, 2.93 µM. The GI50 was 4.81 µM in the experiment on SF-295 CNS and 21.8 µM with UACC-257 melanoma. For the same compound, the TGI is 5.84 µM in the experiment on UACC-62 melanoma; 5 µM with NCI-H226 lung; 63.5 µM in the experiment with IGROV1 ovarian; 5.16 µM with DU-145 prostate; over 100 µM in the experiment on TK-10 renal; over 100 µM in the experiment with MDA-MB-435. Moreover, the TGI came to 39.6 µM in the experiment with SF-295 CNS and 87.7 µM in the experiment with UACC-257 melanoma.

As to `Cc1ccc(SC2c3ccc(C)cc3Oc3nc(N)c(C#N)c(N)c32)cc1` (stereo not drawn), the GI50 was 1.61 µM in the experiment with UACC-62 melanoma; 1.77 µM in the experiment on NCI-H226 lung; 1.86 µM in the experiment with DU-145 prostate; 1.95 µM in the experiment on TK-10 renal; 1.81 µM in the experiment with MDA-MB-435; 6.77 µM with SF-295 CNS. The values for the GI50 with UACC-257 melanoma, in the experiment on KM12 colon and with SK-MEL-28 melanoma were 1.8 µM, 2.36 µM and 1.83 µM, respectively. Further, the TGI in the experiment with UACC-62 melanoma turned out to be 3.13 µM; with NCI-H226 lung, 4 µM; with DU-145 prostate, 3.36 µM; with TK-10 renal it was 3.39 µM; with MDA-MB-435, 3.4 µM; in the experiment on SF-295 CNS, 19.5 µM. For the same compound, the TGI in the experiment on UACC-257 melanoma is 3.22 µM; in the experiment on KM12 colon, 6.6 µM; in the experiment on SK-MEL-28 melanoma it was 3.35 µM.

Regarding `COC(=O)COc1ccccc1/C=C1\N=C(c2ccccc2)N(c2cc(C(F)(F)F)ccc2Cl)C1=O`, the GI50 was over 100 µM with UACC-62 melanoma; 66.6 µM in the experiment on NCI-H226 lung; 57 µM in the experiment with IGROV1 ovarian; 22.1 µM with DU-145 prostate; 56.3 µM with TK-10 renal; 33.1 µM in the experiment with MDA-MB-435. For the same compound, the GI50 in the experiment with SF-295 CNS was over 100 µM; in the experiment with KM12 colon, 41.7 µM; in the experiment on SK-MEL-28 melanoma, 47.6 µM. In addition, the TGI in the experiment on UACC-62 melanoma was over 100 µM; with NCI-H226 lung it was over 100 µM; with IGROV1 ovarian it was over 100 µM; with DU-145 prostate, 47.1 µM; with TK-10 renal, over 100 µM; with MDA-MB-435, over 100 µM. Besides, the TGI in the experiment on SF-295 CNS, in the experiment with KM12 colon and in the experiment with SK-MEL-28 melanoma was over 100 µM in each case.

Regarding `O=C(/C=C/c1ccccc1)CCC1C(=O)c2ccccc2C1=O`, the TGI in the experiment on UACC-62 melanoma, with NCI-H226 lung, with IGROV1 ovarian, with DU-145 prostate, with MDA-MB-435 and with SF-295 CNS was over 100 µM throughout. Besides, the TGI with UACC-257 melanoma, with KM12 colon and in the experiment on SK-MEL-28 melanoma was over 100 µM each time.

For the compound `NC(N)=N/N=C/c1c(-c2ccsc2)nc2sccn12`, the GI50 was 15.6 µM with UACC-62 melanoma; 16.4 µM with NCI-H226 lung; 16.4 µM in the experiment on DU-145 prostate; 10.8 µM in the experiment on TK-10 renal; 14.6 µM in the experiment with MDA-MB-435; 11.4 µM with SF-295 CNS. Further, the GI50 was 22.3 µM in the experiment with UACC-257 melanoma, 12.1 µM in the experiment with KM12 colon and 14.2 µM in the experiment on SK-MEL-28 melanoma. Besides, the TGI is 29 µM with UACC-62 melanoma; 31.2 µM in the experiment on NCI-H226 lung; 31.4 µM with DU-145 prostate; 22.7 µM in the experiment on TK-10 renal; 27.7 µM with MDA-MB-435; 23.6 µM in the experiment on SF-295 CNS. Also, the TGI came out at 41.1 µM with UACC-257 melanoma, 24.5 µM with KM12 colon and 27.6 µM in the experiment on SK-MEL-28 melanoma.

Turning to `NC(=S)N/N=C/C(=O)O`, the GI50 in the experiment with NCI-H226 lung was over 100 µM; in the experiment on IGROV1 ovarian, 43.6 µM; in the experiment on DU-145 prostate it was over 100 µM; in the experiment on MDA-MB-435, over 100 µM; with SF-295 CNS, over 100 µM; in the experiment on UACC-257 melanoma, 30.1 µM. The GI50 in the experiment on KM12 colon and with SK-MEL-28 melanoma was over 100 µM throughout. Besides, the TGI with NCI-H226 lung, in the experiment on IGROV1 ovarian, with DU-145 prostate, in the experiment with MDA-MB-435, with SF-295 CNS and with UACC-257 melanoma was over 100 µM in each case. Besides, the TGI in the experiment on KM12 colon and in the experiment with SK-MEL-28 melanoma was over 100 µM each time.

As for `CC1=C(C(=O)Nc2ccc(F)c(Cl)c2)C(c2ccccc2O)NC(=S)N1` (stereo not drawn), the GI50 was over 50 µM with UACC-62 melanoma; over 50 µM with NCI-H226 lung; over 50 µM in the experiment with IGROV1 ovarian; 17.3 µM in the experiment on DU-145 prostate; over 50 µM in the experiment on TK-10 renal; 32.2 µM in the experiment on MDA-MB-435. In addition, the GI50 with SF-295 CNS is 35.4 µM; in the experiment with UACC-257 melanoma it was 19.8 µM; in the experiment on KM12 colon it was over 50 µM. Further, the TGI in the experiment on UACC-62 melanoma was over 50 µM; with NCI-H226 lung, over 50 µM; in the experiment on IGROV1 ovarian, over 50 µM; with DU-145 prostate, 45.7 µM; with TK-10 renal it was over 50 µM; with MDA-MB-435 it was over 50 µM. For the same compound, the TGI with SF-295 CNS, in the experiment on UACC-257 melanoma and with KM12 colon was over 50 µM throughout.

(Values after PubChem BioAssay (NCI).)
